Reference: US20240165259A1, “BIOORTHOGONAL REACTION SUITABLE FOR CLICK/UNCLICK APPLICATIONS” (DANA-FARBER CANCER INSTITUTE, INC., priority 2021, published 2024)

Assays:
lysozyme-COT 15 = biological target: T1, lysozyme-COT 15 (Gallus gallus, UniProt P00698); assay: In vitro protein labeling of lysozyme-COT 15 with hydroxylamine 13 (in-gel fluorescence, intact MS); format: biochemical
T1 construct: purchased
Description: To test the bioorthogonality of the hydroamination reaction, in vitro protein labeling experiments were performed. Fluorophore-conjugated hydroxylamine 13 was first assembled from 6-carboxytetramethylrhodamine and hydroxylamine 12, which was in turn synthesized by nucleophilic displacement of iodide 11 with N-methylhydroxylamine hydrochloride (FIG. 4A). […] With both reaction components in hand, cyclooctyne-functionalized lysozyme 15 was treated with hydroxylamine 13 (0-200 μM) in PBS for 2 hours and analyzed by in-gel fluorescence (FIG. 4C). Labeling occurred in a concentration-dependent manner, and labeling was saturated at 100 μM hydroxylamine. […]
Lysozyme (CAS 12650-88-3, 50 mg/mL in deionized H2O) was diluted into phosphate-buffered saline (PBS, pH 7.4) to a final concentration of 10 mg/mL. […] The concentration of lysozyme was determined by A280 measurement in denaturing buffer (pH 7.0, 6 M guanidinium, 30 mM MOPS) on a UV-vis spectrophotometer. […]
A solution of lysozyme-COT 15 (5.0 μL, 0.15 mg/mL) was aliquoted into 6 samples. […] In-gel fluorescence was imaged with a Typhoon™ FLA 9500 (GE) at 532 nm with a photomultiplier tube (PMT) setting of 500 V. The experiment was carried out in triplicate (FIG. 8).
A solution of lysozyme-COT 15 (5.0 μL, 0.15 mg/mL) was aliquoted each into 6 samples. […] Samples were snap frozen under liquid nitrogen until all samples were ready to be loaded on the gel. […]

[1] = Stability in PBS with or without glutathione, sodium ascorbate or HEK293T cell lysate (HPLC); format: physicochemical
Description: The stability of both the enamine N-oxide and hydroxylamine species under a variety of biologically relevant conditions were verified at various time points (FIG. 5A-FIG. 5B). […] However, approximately 40% of the hydroxylamine had decomposed by the 24 hour time point. The primary degradation products were consistent with hydrolysis of the regioisomeric nitrones that were likely generated by autoxidation. Consequently, this degradation pathway could be abrogated by the addition of cellular reductants such as ascorbic acid (5 mM) or glutathione (5 mM) (Bobko et al., Free Radical Biol. Med. 42(3):404-412 (2007)).
As with the hydroxylamine, the stability of enamine N-oxide 17 was evaluated by HPLC under biologically relevant conditions.
All reactions were monitored by HPLC at 0, 1, 2, 4, 8, and 24 hour time points.
HPLC analysis: Reactions with enamine N-oxide 17 were analyzed by HPLC (Pursuit 200 Å C18, 4.6×150 mm, 10 μm particles, 1 mL/min flow rate, eluent: isocratic 0% MeCN/H2O+0.1% TFA (1 min), gradient 0→100% MeCN/H2O+0.1% TFA (14 minutes), isocratic 100% MeCN/H2O+0.1% TFA (1 minute)) and quantified using its absorbance at 280 nm. Reactions with hydroxylamine 13 were analyzed by HPLC (Pursuit 200 Å C18, 4.6×150 mm, 10 μm particles, 1 mL/min flow rate, eluent: isocratic 0% MeCN/H2O+0.1% TFA (1 minute), gradient 0-20% MeCN/H2O+0.1% TFA (1 minute), gradient 20-50% MeCN/H2O+0.1% TFA (16 minutes), gradient 50→100% MeCN/H2O+0.1% TFA (2 minutes), isocratic 100% MeCN/H2O+0.1% TFA (1 minute)) and quantified using its absorbance at 254 nm.
Stability in PBS: Enamine N-oxide 17 (4 μL, 15 mM in 25% v/v MeOH/PBS, pH 7.4) was added to PBS (116 μL, pH 7.4; 500 μM final concentration). Separately, hydroxylamine 13 (3 μL, 20 mM in deionized H2O) was added to PBS (117 μL, pH 7.4; 500 μM final concentration). Each solution was monitored by HPLC at each time point.
Stability in the presence of glutathione, sodium ascorbate, and cell lysate: The reactions were conducted as described above in the Stability in PBS section except the PBS solution was first supplemented with glutathione (5 mM final concentration), sodium ascorbate (5 mM final concentration), or HEK293T cell lysate (1 mg/mL final concentration) and pH adjusted to 7.4 before adding enamine N-oxide 17 (500 μM final concentration) or hydroxylamine 13 (500 μM final concentration).

T1 sequence (P00698 19-147): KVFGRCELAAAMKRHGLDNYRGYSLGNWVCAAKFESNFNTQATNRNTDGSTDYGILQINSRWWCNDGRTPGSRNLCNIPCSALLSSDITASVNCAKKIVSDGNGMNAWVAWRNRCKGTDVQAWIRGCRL

## CN(O)CCOCCNC(=O)c1ccc2c(c1)C1(OC2=O)c2ccc(N(C)C)cc2Oc2cc(N(C)C)ccc21 [compound 13, 3′,6′-bis(dimethylamino)-N-(2-(2-(hydroxy(methyl)amino)ethoxy)ethyl)-3-oxo-3H-spiro[isobenzofuran-1,9′-xanthene]-6-carboxamide]
lysozyme-COT 15; 200 μM 13, quenched with N,N-diethylhydroxylamine (20 mM)
  time to in-gel fluorescence signal saturation: ≤ 1 h
lysozyme-COT 15; lysozyme-COT 15, 0-200 μM 13, PBS, 2 hours, in-gel fluorescence
  hydroxylamine concentration at which labeling was saturated: 100 µM
[1]; HEK293T cell lysate (1 mg/mL), 24 hours, no exogenous reductants
  degradation in cell lysate: no degradation above background
[1]; PBS with ascorbic acid (5 mM) or glutathione (5 mM), 24 hours
  degradation in the presence of cellular reductants: Negligible degradation
[1]; PBS, room temperature, 24 hour time point
  hydroxylamine decomposed: approximately 40%
[1]; PBS, room temperature, up to 8 hours, HPLC
  compound intact: > 86%
